Experimental data taken from article PMC11789599, “Co‐Translational Deposition of N ^6‐Acetyl‐L‐Lysine in Nascent Proteins Contributes to the Acetylome in Mammalian Cells” (Advanced Science, 2024).

Columns and labels:
[1] = biological target: T1, Lysyl-tRNA synthetase (KARS) (Homo sapiens, UniProt Q15046); assay: co-crystal structure at […] Å; MST Kd; also ATP consumption/AMP production by purified KARS; format: binding; set-up: gene KARS1; KARS70-580, C-terminal 6xHis
[2] = biological target: T1, Lysyl-tRNA synthetase (KARS); assay: biochemical; set-up: gene KARS1

T1 sequence (Q15046 70-580): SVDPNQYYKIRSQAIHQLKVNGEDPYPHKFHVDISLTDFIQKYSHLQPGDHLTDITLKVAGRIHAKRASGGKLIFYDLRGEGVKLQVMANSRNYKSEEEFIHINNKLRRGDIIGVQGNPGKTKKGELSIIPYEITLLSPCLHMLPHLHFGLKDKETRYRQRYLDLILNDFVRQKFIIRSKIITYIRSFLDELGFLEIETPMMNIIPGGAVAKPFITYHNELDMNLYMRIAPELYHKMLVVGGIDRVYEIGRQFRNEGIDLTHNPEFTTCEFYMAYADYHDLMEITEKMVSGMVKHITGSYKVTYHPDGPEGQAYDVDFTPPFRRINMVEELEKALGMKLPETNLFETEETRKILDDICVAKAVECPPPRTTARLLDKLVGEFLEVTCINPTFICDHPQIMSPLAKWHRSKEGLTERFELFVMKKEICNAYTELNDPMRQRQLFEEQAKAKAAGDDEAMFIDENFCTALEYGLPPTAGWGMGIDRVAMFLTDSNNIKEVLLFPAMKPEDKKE

Compound	Kd [1]	Kd [2]
CC(=O)NCCCC[C@H](N)C(=O)O [AcK, N6-acetyl-L-lysine]	407 ± 291 µM	–
NCCCC[C@H](N)C(=O)O [L-lysine]	–	118 ± 55.5 µM
